Results published in patent US20030105595A1, “Chi square tests for gene expression” (priority 2001, published 2003).

Assays:
Assay in all cases: multi-sample expression analysis, band intensity
Format in all cases: in vivo
Conditions in all cases: Pooled
band b1i0_54.5 = tested on: band b1i0_54.5
Source text: (§1) To practice the invention, one skilled in the art obtains a source of biological samples, as well as expression information about the biological samples, i.e., expression information relative to one or more genes or polypeptides encoded therein. Data is collected for a particular phenotype appearing within a given population under study, whereby expression of that phenotype is to be determined within the biological sample under study. The phenotype is correlated to a specific genotype, which is then represented as a band with a given intentity, thus indicative of gene expression levels, and is then compared to control samples. Alternatively, the response of a gene to dosage with one or more drugs is determined by band intensity. The standard deviation from the mean (StdDev) is calculated for the control samples, and is fit to functional form in the following equation: […]
(§2) A multi-sample expression analysis was run using the program described in Example 1. For each drug run, only runs for genes producing bands with a p-value<10^−5 in at least 2 of the following 3 comparisons were selected: low dose versus vehicle, high dose versus vehicle and low dose versus high dose. […] Since clusters found using all 13K bands included some of the best 2K bands, it was concluded that no essential signal was lost (see FIGS. 3 and 4). […] A comparison using the same analytic tests on only the best 2K bands. It can be seen that the Chi Square metric provides a better distinction between low and high doses than the correlation metric, which is not able to distinguish between the low dose and the high dose (see FIG. 6). The low-dose/high dose statistical variation is more pronounced when only the best 2K bands are selected.

band b1i0_51.7 = tested on: band b1i0_51.7
Source text: as §1, §2

band b1i0_69.4 = tested on: band b1i0_69.4
Source text: as §1, §2

band b1i0_60.7 = tested on: band b1i0_60.7
Source text: as §1, §2

band b1i0_62.5 = tested on: band b1i0_62.5
Source text: as §1, §2

band b1i0_63.7 = tested on: band b1i0_63.7
Source text: as §1, §2

band b1i0_53.0 = tested on: band b1i0_53.0
Source text: as §1, §2

band b1i0_57.4 = tested on: band b1i0_57.4
Source text: as §1, §2

Nc1ccc(Cc2ccc(N)cc2)cc1 [Methylenedianiline]
band intensity b1i0_54.5 (band b1i0_54.5; High dose, 1d): 104.9
band intensity b1i0_54.5 (band b1i0_54.5; High dose, 3d): 106
band intensity b1i0_54.5 (band b1i0_54.5; High dose, 7d): 82.18
band intensity b1i0_54.5 (band b1i0_54.5; High dose, 14d): 51.09
band intensity b1i0_54.5 (band b1i0_54.5; Low dose, 1d): 123.7
band intensity b1i0_54.5 (band b1i0_54.5; Low dose, 3d): 111.4
band intensity b1i0_54.5 (band b1i0_54.5; Low dose, 7d): 86.49
band intensity b1i0_54.5 (band b1i0_54.5; Low dose, 14d): 62.55
band intensity b1i0_51.7 (band b1i0_51.7; High dose, 1d): 23.55
band intensity b1i0_51.7 (band b1i0_51.7; High dose, 3d): 27.88
band intensity b1i0_51.7 (band b1i0_51.7; High dose, 7d): 23.35
band intensity b1i0_51.7 (band b1i0_51.7; High dose, 14d): 33.18
band intensity b1i0_51.7 (band b1i0_51.7; Low dose, 1d): 22.28
band intensity b1i0_51.7 (band b1i0_51.7; Low dose, 3d): 27.01
band intensity b1i0_51.7 (band b1i0_51.7; Low dose, 7d): 21.37
band intensity b1i0_51.7 (band b1i0_51.7; Low dose, 14d): 71.33
band intensity b1i0_69.4 (band b1i0_69.4; High dose, 1d): 262.2
band intensity b1i0_69.4 (band b1i0_69.4; High dose, 3d): 329.9
band intensity b1i0_69.4 (band b1i0_69.4; High dose, 7d): 290.2061
band intensity b1i0_69.4 (band b1i0_69.4; High dose, 14d): 512.9
band intensity b1i0_69.4 (band b1i0_69.4; Low dose, 1d): 349.4
band intensity b1i0_69.4 (band b1i0_69.4; Low dose, 3d): 349.3
band intensity b1i0_69.4 (band b1i0_69.4; Low dose, 7d): 303.1
band intensity b1i0_69.4 (band b1i0_69.4; Low dose, 14d): 714.8
band intensity b1i0_60.7 (band b1i0_60.7; High dose, 1d): 67.13
band intensity b1i0_60.7 (band b1i0_60.7; High dose, 3d): 85.72
band intensity b1i0_60.7 (band b1i0_60.7; High dose, 7d): 82.44
band intensity b1i0_60.7 (band b1i0_60.7; High dose, 14d): 158.3
band intensity b1i0_60.7 (band b1i0_60.7; Low dose, 1d): 66.66
band intensity b1i0_60.7 (band b1i0_60.7; Low dose, 3d): 78.99
band intensity b1i0_60.7 (band b1i0_60.7; Low dose, 7d): 79.32
band intensity b1i0_60.7 (band b1i0_60.7; Low dose, 14d): 139.6
band intensity b1i0_62.5 (band b1i0_62.5; High dose, 1d): 59.42
band intensity b1i0_62.5 (band b1i0_62.5; High dose, 3d): 70.64
band intensity b1i0_62.5 (band b1i0_62.5; High dose, 7d): 71.55
band intensity b1i0_62.5 (band b1i0_62.5; High dose, 14d): 185.7
band intensity b1i0_62.5 (band b1i0_62.5; Low dose, 1d): 63.43
band intensity b1i0_62.5 (band b1i0_62.5; Low dose, 3d): 69.92
band intensity b1i0_62.5 (band b1i0_62.5; Low dose, 7d): 86.01
band intensity b1i0_62.5 (band b1i0_62.5; Low dose, 14d): 207.6
band intensity b1i0_63.7 (band b1i0_63.7; High dose, 1d): 85.1
band intensity b1i0_63.7 (band b1i0_63.7; High dose, 3d): 153.8
band intensity b1i0_63.7 (band b1i0_63.7; High dose, 7d): 144.3
band intensity b1i0_63.7 (band b1i0_63.7; High dose, 14d): 2.073
band intensity b1i0_63.7 (band b1i0_63.7; Low dose, 1d): 24.89
band intensity b1i0_63.7 (band b1i0_63.7; Low dose, 3d): 84.1
band intensity b1i0_63.7 (band b1i0_63.7; Low dose, 7d): 287.2
band intensity b1i0_63.7 (band b1i0_63.7; Low dose, 14d): 0.3527
band intensity b1i0_53.0 (band b1i0_53.0; High dose, 1d): 101.1
band intensity b1i0_53.0 (band b1i0_53.0; High dose, 3d): 98.11
band intensity b1i0_53.0 (band b1i0_53.0; High dose, 7d): 113.8
band intensity b1i0_53.0 (band b1i0_53.0; High dose, 14d): 60.92
band intensity b1i0_53.0 (band b1i0_53.0; Low dose, 1d): 103.4
band intensity b1i0_53.0 (band b1i0_53.0; Low dose, 3d): 101.1
band intensity b1i0_53.0 (band b1i0_53.0; Low dose, 7d): 111.5
band intensity b1i0_53.0 (band b1i0_53.0; Low dose, 14d): 55.87
band intensity b1i0_57.4 (band b1i0_57.4; High dose, 1d): 1230
band intensity b1i0_57.4 (band b1i0_57.4; High dose, 3d): 1407
band intensity b1i0_57.4 (band b1i0_57.4; High dose, 7d): 1184
band intensity b1i0_57.4 (band b1i0_57.4; High dose, 14d): 455.9
band intensity b1i0_57.4 (band b1i0_57.4; Low dose, 1d): 1376
band intensity b1i0_57.4 (band b1i0_57.4; Low dose, 3d): 1433
band intensity b1i0_57.4 (band b1i0_57.4; Low dose, 7d): 1280
band intensity b1i0_57.4 (band b1i0_57.4; Low dose, 14d): 789.2

Cc1cc(C(C)(C)C)c(O)c(C(C)(C)C)c1 [BHT]
band intensity b1i0_54.5 (band b1i0_54.5; High dose, 1d): 82.82
band intensity b1i0_54.5 (band b1i0_54.5; High dose, 3d): 96.92
band intensity b1i0_54.5 (band b1i0_54.5; High dose, 7d): 81.74
band intensity b1i0_54.5 (band b1i0_54.5; High dose, 14d): 93.42
band intensity b1i0_54.5 (band b1i0_54.5; Low dose, 1d): 93.97
band intensity b1i0_54.5 (band b1i0_54.5; Low dose, 3d): 101.5
band intensity b1i0_54.5 (band b1i0_54.5; Low dose, 7d): 92.42
band intensity b1i0_54.5 (band b1i0_54.5; Low dose, 14d): 91.73
band intensity b1i0_51.7 (band b1i0_51.7; High dose, 1d): 24.21
band intensity b1i0_51.7 (band b1i0_51.7; High dose, 3d): 25.0702
band intensity b1i0_51.7 (band b1i0_51.7; High dose, 7d): 17.72
band intensity b1i0_51.7 (band b1i0_51.7; High dose, 14d): 26.78
band intensity b1i0_51.7 (band b1i0_51.7; Low dose, 1d): 18.78
band intensity b1i0_51.7 (band b1i0_51.7; Low dose, 3d): 18.02
band intensity b1i0_51.7 (band b1i0_51.7; Low dose, 7d): 12.13
band intensity b1i0_51.7 (band b1i0_51.7; Low dose, 14d): 18.31
band intensity b1i0_69.4 (band b1i0_69.4; High dose, 1d): 241.7
band intensity b1i0_69.4 (band b1i0_69.4; High dose, 3d): 251.2
band intensity b1i0_69.4 (band b1i0_69.4; High dose, 7d): 255.9
band intensity b1i0_69.4 (band b1i0_69.4; High dose, 14d): 268.8
band intensity b1i0_69.4 (band b1i0_69.4; Low dose, 1d): 272.5
band intensity b1i0_69.4 (band b1i0_69.4; Low dose, 3d): 190.6
band intensity b1i0_69.4 (band b1i0_69.4; Low dose, 7d): 282.9
band intensity b1i0_69.4 (band b1i0_69.4; Low dose, 14d): 286.5
band intensity b1i0_60.7 (band b1i0_60.7; High dose, 1d): 71.52
band intensity b1i0_60.7 (band b1i0_60.7; High dose, 3d): 70.09
band intensity b1i0_60.7 (band b1i0_60.7; High dose, 7d): 62.31
band intensity b1i0_60.7 (band b1i0_60.7; High dose, 14d): 68.41
band intensity b1i0_60.7 (band b1i0_60.7; Low dose, 1d): 72.36
band intensity b1i0_60.7 (band b1i0_60.7; Low dose, 3d): 69.13
band intensity b1i0_60.7 (band b1i0_60.7; Low dose, 7d): 79.01
band intensity b1i0_60.7 (band b1i0_60.7; Low dose, 14d): 90.11
band intensity b1i0_62.5 (band b1i0_62.5; High dose, 1d): 81.06
band intensity b1i0_62.5 (band b1i0_62.5; High dose, 3d): 56.24
band intensity b1i0_62.5 (band b1i0_62.5; High dose, 7d): 81.59
band intensity b1i0_62.5 (band b1i0_62.5; High dose, 14d): 57.74
band intensity b1i0_62.5 (band b1i0_62.5; Low dose, 1d): 74.66
band intensity b1i0_62.5 (band b1i0_62.5; Low dose, 3d): 70.37
band intensity b1i0_62.5 (band b1i0_62.5; Low dose, 7d): 62.54
band intensity b1i0_62.5 (band b1i0_62.5; Low dose, 14d): 63.7
band intensity b1i0_63.7 (band b1i0_63.7; High dose, 1d): 240.7
band intensity b1i0_63.7 (band b1i0_63.7; High dose, 3d): 120.1
band intensity b1i0_63.7 (band b1i0_63.7; High dose, 7d): 313.4
band intensity b1i0_63.7 (band b1i0_63.7; High dose, 14d): 41.88
band intensity b1i0_63.7 (band b1i0_63.7; Low dose, 1d): 152.6
band intensity b1i0_63.7 (band b1i0_63.7; Low dose, 3d): 171.4
band intensity b1i0_63.7 (band b1i0_63.7; Low dose, 7d): 132.3
band intensity b1i0_63.7 (band b1i0_63.7; Low dose, 14d): 161.6
band intensity b1i0_53.0 (band b1i0_53.0; High dose, 1d): 104.3
band intensity b1i0_53.0 (band b1i0_53.0; High dose, 3d): 101.7
band intensity b1i0_53.0 (band b1i0_53.0; High dose, 7d): 104.1
band intensity b1i0_53.0 (band b1i0_53.0; High dose, 14d): 82.87
band intensity b1i0_53.0 (band b1i0_53.0; Low dose, 1d): 108.8
band intensity b1i0_53.0 (band b1i0_53.0; Low dose, 3d): 87.18
band intensity b1i0_53.0 (band b1i0_53.0; Low dose, 7d): 104.5
band intensity b1i0_53.0 (band b1i0_53.0; Low dose, 14d): 96.38
band intensity b1i0_57.4 (band b1i0_57.4; High dose, 1d): 1177
band intensity b1i0_57.4 (band b1i0_57.4; High dose, 3d): 1235
band intensity b1i0_57.4 (band b1i0_57.4; High dose, 7d): 990.2
band intensity b1i0_57.4 (band b1i0_57.4; High dose, 14d): 1049
band intensity b1i0_57.4 (band b1i0_57.4; Low dose, 1d): 1182
band intensity b1i0_57.4 (band b1i0_57.4; Low dose, 3d): 1224
band intensity b1i0_57.4 (band b1i0_57.4; Low dose, 7d): 1156
band intensity b1i0_57.4 (band b1i0_57.4; Low dose, 14d): 1229
